{"source": "patent US12577216B2", "about": "“Triazine benzoate compound and application thereof” (SHENYANG SINOCHEM AGROCHEMICALS R&D CO., LTD., priority 2020, dated 2026)", "key": {"[1]": {"test_system": "zinnia", "test": "Determination of herbicidal activity, post-emergence stem and leaf spray, zinnia", "type": "in vivo", "description": "(§1) Seeds of broadleaf weeds (zinnia and piemarker) or grassy weeds (green bristlegrass and barnyard grass) were respectively sown in a paper cup having a diameter of 7 cm and containing nutrient soil; after sowing, the seeds were covered with 1 cm of soil; the soil was pressed and watered, and then the seeds were cultivated in a greenhouse according to a conventional method; and stems and leaves were sprayed after 2-3 leaf stage of the weeds.\n(§2) After the original medicinal acetone was dissolved, the test requires to use 1‰ of Tween 80 to stand in running water to prepare the solution to be tested with a required concentration. According to the design dose of the test, spray treatment was carried out on a track-type crop sprayer (designed and produced by British Engineer Research Ltd.) (spray pressure is 1.95 kg/cm^2, spray volume is 500 L/hm^2 and track speed is 1.48 km/h). The test was repeated for three times. The test material was treated and then placed in an operation hall. The medicinal liquid was naturally dried in the shade, and then was placed in a greenhouse and managed according to the conventional method. The response of the weeds to the drug was observed and recorded. After treatment, the control effects of the test drug on the weeds were visually inspected regularly, expressed by 0-100%. “0” represents no control effect and “100%” represents complete killing."}, "[2]": {"test_system": "piemarker", "test": "Determination of herbicidal activity, post-emergence stem and leaf spray, piemarker", "type": "in vivo", "description": "as §1, §2"}, "[3]": {"test_system": "green bristlegrass", "test": "Determination of herbicidal activity, post-emergence stem and leaf spray, green bristlegrass", "type": "in vivo", "settings": "for Herbicidal activity for Green Bristlegrass, control effect %: Table 5 parallel comparison", "description": "as §1, §2"}, "[4]": {"test_system": "barnyard grass", "test": "Determination of herbicidal activity, post-emergence stem and leaf spray, barnyard grass", "type": "in vivo", "settings": "for Herbicidal activity for Barnyard Grass, control effect %: Table 6 parallel comparison", "description": "as §1, §2"}, "[5]": {"test_system": "Amaranthus retroflexus", "settings": "postemergence application, doses of 7.81 and 3.91 g/ha; cited from earlier work"}, "[6]": {"test_system": "Chenopodium album L.", "settings": "postemergence application, doses of 7.81 and 3.91 g/ha; cited from earlier work"}, "[7]": {"test_system": "Commelina benghalensis Linn.", "settings": "postemergence application, doses of 7.81 and 3.91 g/ha; cited from earlier work"}, "[8]": {"test_system": "Setaria faberi", "settings": "postemergence application, doses of 7.81 and 3.91 g/ha; cited from earlier work"}, "[9]": {"settings": "Table 2, 9.375 g a.i./hm^2, after emergence"}, "[10]": {"settings": "Table 2, 37.5 g a.i./hm^2, after emergence"}, "[11]": {"settings": "9.375 g a.i./hm^2, after emergence"}, "[12]": {"settings": "37.5 g a.i./hm^2, after emergence"}}}
{"compound": "C=CCOC(=O)c1cc(-n2c(=O)n(C)c(=S)n(C)c2=O)c(F)cc1Cl", "note": "[KC1, reference compound]", "values": [{"measurement": "Zinnia, control effect %", "setting": "[1]; [9]", "result": 50, "unit": "%"}, {"measurement": "Zinnia, control effect %", "setting": "[1]; [10]", "result": 60, "unit": "%"}, {"measurement": "Herbicidal activity for Zinnia, control effect %", "setting": "[1]; Table 3 parallel comparison, 9.375 g a.i./hm^2, after emergence", "result": 50, "unit": "%"}, {"measurement": "Piemarker, control effect %", "setting": "[2]; [9]", "result": 55, "unit": "%"}, {"measurement": "Piemarker, control effect %", "setting": "[2]; [10]", "result": 100, "unit": "%"}, {"measurement": "Herbicidal activity for Piemarker, control effect %", "setting": "[2]; Table 4 parallel comparison, 9.375 g a.i./hm^2, after emergence", "result": 55, "unit": "%"}, {"measurement": "Green Bristlegrass, control effect %", "setting": "[3]; [9]", "result": 10, "unit": "%"}, {"measurement": "Green Bristlegrass, control effect %", "setting": "[3]; [10]", "result": 25, "unit": "%"}, {"measurement": "Herbicidal activity for Green Bristlegrass, control effect %", "setting": "[3]; [11]", "result": 10, "unit": "%"}, {"measurement": "Herbicidal activity for Green Bristlegrass, control effect %", "setting": "[3]; [12]", "result": 25, "unit": "%"}, {"measurement": "Barnyard Grass, control effect %", "setting": "[4]; [9]", "result": 0, "unit": "%"}, {"measurement": "Barnyard Grass, control effect %", "setting": "[4]; [10]", "result": 25, "unit": "%"}, {"measurement": "Herbicidal activity for Barnyard Grass, control effect %", "setting": "[4]; [11]", "result": 0, "unit": "%"}, {"measurement": "Herbicidal activity for Barnyard Grass, control effect %", "setting": "[4]; [12]", "result": 25, "unit": "%"}, {"measurement": "control of Amaranthus retroflexus", "setting": "[5]", "result": "effectively control"}, {"measurement": "control of Chenopodium album L.", "setting": "[6]", "result": "effectively control"}, {"measurement": "control of Commelina benghalensis Linn.", "setting": "[7]", "result": "effectively control"}, {"measurement": "control of Setaria faberi", "setting": "[8]", "result": "effectively control"}]}
